According to patent US20250275953A1, “VODOBATINIB FOR REDUCING PROGRESSION OF PARKINSON'S DISEASE” (Sun Pharma Advanced Research Company Ltd., priority 2022, published 2025):
Like-named read-outs stand apart in the source and are kept apart here.

Assay: Plasma pharmacokinetics, 7 once-daily oral doses, healthy volunteers
Format: in vivo, human
Conditions: for Cmax / Tmax / AUC(0-t): male, human, plasma, oral
Procedure: After 28 days of screening, the subjects were studied in sequential cohorts of 6 subjects each. The study was conducted for 17 days. […] After the dose, subjects continued to fast for additional 4 hours, water was allowed ad libitum with the exception of 1 hour prior and 1-hour post dose.
The plasma and CSF samples were analyzed, by validated LC/MS-MS methods. PK analysis was conducted based on PK/PP Population: Cmax, AUC0-t, AUC0-24, AUC0-∞, Tmax, Cavg, CL/F, Cmin, t1/2, Kel, Vd (V/F; Vd/F), and Vss/F. Model-independent plasma PK parameters (Cmax, Tmax, t1/2, AUC0-t, AUC0-24, AUC0-∞, Cavg, CL/F, Vss/F, Vd/F), after the first dose (Day 1) and last dose (Day 7), Cmin on Days 2-7) was listed by subject and summarized by study cohort. In addition to the descriptive statistics listed above, geometric means was reported for the pivotal PK endpoints (CL/F, Vss/F, Vd/F, Cmin, Cavg, AUC0-t, AUC0-24, AUC0-∞, and Cmax). For CSF, PK parameters (Cmax, Tmax, t1/2, AUC0-t, AUC0-24, Cmin, Cavg, CL/F, Vss/F) was listed by subject and summarized by cohort. Ratios of CSF: plasma concentration at each time point was listed by subject and summarized by study cohort.
Forty-one healthy adult male volunteers aged 18 to 45 with body mass indexes (BMI)≥18 to ≤30 Kg/m^2 and total body weight >50 kg (110 lb) were screened in order to enroll 19 subjects with an average age of 34.2 years (range 21.5-45.6 years) into this study Six participants were randomly assigned to the 48 and 192 mg cohorts, and seven participants were assigned to the 384 mg cohort. After an overnight fast, participants received once daily doses of vodobatinib as capsules for 7 days. Serial PK blood samples to measure vodobatinib plasma concentrations were collected at pre-dose and at 0.25, 0.5, 1, 1.5, 2, 2.5, 3, 4, 6, 8, 12, 16 and 24 h post-dose after the first dose on Day 1 and the last dose on day 7. Additional PK samples prior to the morning doses were taken on Days 3-6. On the morning of Day 7, prior to dosing, an indwelling intrathecal catheter was inserted in the lumbar region (L3-L5). Serial CSF samples were collected through the catheter connected via peristaltic pump to a fraction collector. At each designated CSF collection time point, 8 mL of CSF was collected at a flow rate of 0.5 mL/min over a 16-min period at pre-dose, and 0.5, 1.0, 1.5, 2, 2.5, 3, 4, 6, 8, 12 and 24 h post-dose. The first 2 mL of CSF was discarded, and the remaining 6 mL was used for the vodobatinib assay. The occurrence of treatment-emergent adverse events (TEAEs) and serious AEs (SAEs) reported through the completion of study were collected.

[1] = 48 mg, Day 7, plasma, healthy volunteers
[2] = 192 mg, Day 1, plasma, healthy volunteers
[3] = 192 mg, Day 7, plasma, healthy volunteers
[4] = 384 mg, Day 1, plasma, healthy volunteers
[5] = 384 mg, Day 7, plasma, healthy volunteers

## Cc1ccc(C(=O)NNC(=O)c2c(C)cccc2Cl)cc1C#Cc1cnc2ccccc2c1 [N′-(2-chloro-6-methylbenzoyl)-4-methyl-3-[2-(3-quinolyl)ethynyl]-benzohydrazide]
48 mg, Day 1, plasma, healthy volunteers
  AUC0-24 GM: 8.6916 µg·h/mL
[1]
  AUC0-24 GM: 10.3469 µg·h/mL
  Cmax GM: 1.2414 µg/mL
[2]
  AUC0-24 GM: 33.4258 µg·h/mL
  Cmax GM: 3.5507 µg/mL
[3]
  AUC0-24 GM: 39.1382 µg·h/mL
  Cmax GM: 5.0209 µg/mL
[4]
  AUC0-24 GM: 35.5365 µg·h/mL
  Cmax GM: 5.3871 µg/mL
[5]
  AUC0-24 GM: 42.1245 µg·h/mL
  Cmax GM: 6.6487 µg/mL
Day 1, across 48-384 mg cohorts
  time within which peak plasma concentrations (Cmax) achieved: 2.8 to 4.0 h
48 mg, Day 1, plasma, Healthy Subjects, Table 10, read-out: Cmax Mean
  Cmax: 1.38 µg/mL
48 mg, Day 1, plasma, Healthy Subjects, Table 10, read-out: Tmax median
  Tmax: 2.8 h
48 mg, Day 1, plasma, Healthy Subjects, read-out: AUC0-24 Mean
  AUC(0-t): 8.87 µg·h/mL
48 mg, Day 1, plasma, healthy volunteers, read-out: AUC0-24 AM
  AUC(0-t): 8.87 µg·h/mL
48 mg, Day 1, plasma, healthy volunteers, read-out: AUC0-24 GM
  AUC(0-t): 8.69 µg·h/mL
48 mg, Day 1, plasma, healthy volunteers, read-out: AUC0-24 Median
  AUC(0-t): 8.88 µg·h/mL
48 mg, Day 1, plasma, healthy volunteers, read-out: AUC0-24 Min, Max
  AUC(0-t): 5.85 to 10.8 µg·h/mL
48 mg, Day 1, plasma, healthy volunteers, read-out: Cmax AM
  Cmax: 1.38 µg/mL
48 mg, Day 1, plasma, healthy volunteers, read-out: Cmax GM
  Cmax: 1.33 µg/mL
48 mg, Day 1, plasma, healthy volunteers, read-out: Cmax Median
  Cmax: 1.22 µg/mL
48 mg, Day 1, plasma, healthy volunteers, read-out: Cmax Min, Max
  Cmax: 1.01 to 2 µg/mL
48 mg, Day 1, plasma, healthy volunteers, read-out: Tmax Median
  Tmax: 2.8 h
48 mg, Day 1, plasma, healthy volunteers, read-out: Tmax Min, Max
  Tmax: 1.5 to 4 h
48 mg, Day 7, plasma, Healthy Subjects, Table 10, read-out: Cmax Mean
  Cmax: 1.4 µg/mL
48 mg, Day 7, plasma, Healthy Subjects, Table 10, read-out: Tmax median (range)
  Tmax: 4 h
48 mg, Day 7, plasma, Healthy Subjects, read-out: AUC0-24 Mean
  AUC(0-t): 12.9 µg·h/mL
48 mg, Day 7, plasma, healthy volunteers, read-out: AUC0-24 AM
  AUC(0-t): 12.9 µg·h/mL
48 mg, Day 7, plasma, healthy volunteers, read-out: AUC0-24 GM
  AUC(0-t): 10.3 µg·h/mL
48 mg, Day 7, plasma, healthy volunteers, read-out: AUC0-24 Median
  AUC(0-t): 11 µg·h/mL
48 mg, Day 7, plasma, healthy volunteers, read-out: AUC0-24 Min, Max
  AUC(0-t): 2.97 to 29 µg·h/mL
48 mg, Day 7, plasma, healthy volunteers, read-out: Cmax AM
  Cmax: 1.4 µg/mL
48 mg, Day 7, plasma, healthy volunteers, read-out: Cmax GM
  Cmax: 1.24 µg/mL
48 mg, Day 7, plasma, healthy volunteers, read-out: Cmax Median
  Cmax: 1.34 µg/mL
48 mg, Day 7, plasma, healthy volunteers, read-out: Cmax Min, Max
  Cmax: 0.421 to 2.38 µg/mL
48 mg, Day 7, plasma, healthy volunteers, read-out: Tmax Median
  Tmax: 4 h
48 mg, Day 7, plasma, healthy volunteers, read-out: Tmax Min, Max
  Tmax: 1.5 to 12 h
192 mg, Day 1, plasma, Healthy Subjects, Table 10, read-out: Cmax Mean
  Cmax: 3.77 µg/mL
192 mg, Day 1, plasma, Healthy Subjects, Table 10, read-out: Tmax median
  Tmax: 3.5 h
192 mg, Day 1, plasma, Healthy Subjects, read-out: AUC0-24 Mean
  AUC(0-t): 34.5 µg·h/mL
192 mg, Day 1, plasma, healthy volunteers, read-out: AUC0-24 AM
  AUC(0-t): 34.5 µg·h/mL
192 mg, Day 1, plasma, healthy volunteers, read-out: AUC0-24 GM
  AUC(0-t): 33.4 µg·h/mL
192 mg, Day 1, plasma, healthy volunteers, read-out: AUC0-24 Median
  AUC(0-t): 34.7 µg·h/mL
192 mg, Day 1, plasma, healthy volunteers, read-out: AUC0-24 Min, Max
  AUC(0-t): 22.4 to 45.6 µg·h/mL
192 mg, Day 1, plasma, healthy volunteers, read-out: Cmax AM
  Cmax: 3.77 µg/mL
192 mg, Day 1, plasma, healthy volunteers, read-out: Cmax GM
  Cmax: 3.55 µg/mL
192 mg, Day 1, plasma, healthy volunteers, read-out: Cmax Median
  Cmax: 3.18 µg/mL
192 mg, Day 1, plasma, healthy volunteers, read-out: Cmax Min, Max
  Cmax: 2.74 to 7.19 µg/mL
192 mg, Day 1, plasma, healthy volunteers, read-out: Tmax Median
  Tmax: 3.5 h
192 mg, Day 1, plasma, healthy volunteers, read-out: Tmax Min, Max
  Tmax: 1.62 to 4 h
192 mg, Day 7, plasma, Healthy Subjects, Table 10, read-out: Cmax Mean
  Cmax: 5.38 µg/mL
192 mg, Day 7, plasma, Healthy Subjects, Table 10, read-out: Tmax median (range)
  Tmax: 4 h
192 mg, Day 7, plasma, Healthy Subjects, read-out: AUC0-24 Mean
  AUC(0-t): 44.1 µg·h/mL
192 mg, Day 7, plasma, healthy volunteers, read-out: AUC0-24 AM
  AUC(0-t): 44.1 µg·h/mL
192 mg, Day 7, plasma, healthy volunteers, read-out: AUC0-24 GM
  AUC(0-t): 39.1 µg·h/mL
192 mg, Day 7, plasma, healthy volunteers, read-out: AUC0-24 Median
  AUC(0-t): 40.1 µg·h/mL
192 mg, Day 7, plasma, healthy volunteers, read-out: AUC0-24 Min, Max
  AUC(0-t): 20.7 to 91.5 µg·h/mL
192 mg, Day 7, plasma, healthy volunteers, read-out: Cmax AM
  Cmax: 5.38 µg/mL
192 mg, Day 7, plasma, healthy volunteers, read-out: Cmax GM
  Cmax: 5.02 µg/mL
192 mg, Day 7, plasma, healthy volunteers, read-out: Cmax Median
  Cmax: 4.69 µg/mL
192 mg, Day 7, plasma, healthy volunteers, read-out: Cmax Min, Max
  Cmax: 3.12 to 10.1 µg/mL
192 mg, Day 7, plasma, healthy volunteers, read-out: Tmax Median
  Tmax: 4 h
192 mg, Day 7, plasma, healthy volunteers, read-out: Tmax Min, Max
  Tmax: 4.01 to 4.08 h
384 mg, Day 1, plasma, Healthy Subjects, Table 10, read-out: Cmax Mean
  Cmax: 6.63 µg/mL
384 mg, Day 1, plasma, Healthy Subjects, Table 10, read-out: Tmax median
  Tmax: 4 h
384 mg, Day 1, plasma, Healthy Subjects, read-out: AUC0-24 Mean
  AUC(0-t): 47.6 µg·h/mL
384 mg, Day 1, plasma, healthy volunteers, read-out: AUC0-24 AM
  AUC(0-t): 47.6 µg·h/mL
384 mg, Day 1, plasma, healthy volunteers, read-out: AUC0-24 GM
  AUC(0-t): 35.5 µg·h/mL
384 mg, Day 1, plasma, healthy volunteers, read-out: AUC0-24 Median
  AUC(0-t): 41.9 µg·h/mL
384 mg, Day 1, plasma, healthy volunteers, read-out: AUC0-24 Min, Max
  AUC(0-t): 6.64 to 105 µg·h/mL
384 mg, Day 1, plasma, healthy volunteers, read-out: Cmax AM
  Cmax: 6.63 µg/mL
384 mg, Day 1, plasma, healthy volunteers, read-out: Cmax GM
  Cmax: 5.39 µg/mL
384 mg, Day 1, plasma, healthy volunteers, read-out: Cmax Median
  Cmax: 5.58 µg/mL
384 mg, Day 1, plasma, healthy volunteers, read-out: Cmax Min, Max
  Cmax: 1.49 to 13.7 µg/mL
384 mg, Day 1, plasma, healthy volunteers, read-out: Tmax Median
  Tmax: 4 h
384 mg, Day 1, plasma, healthy volunteers, read-out: Tmax Min, Max
  Tmax: 1.5 to 6 h
384 mg, Day 7, plasma, Healthy Subjects, Table 10, read-out: Cmax Mean
  Cmax: 7.85 µg/mL
384 mg, Day 7, plasma, Healthy Subjects, Table 10, read-out: Tmax median (range)
  Tmax: 3.5 h
384 mg, Day 7, plasma, Healthy Subjects, read-out: AUC0-24 Mean
  AUC(0-t): 54.9 µg·h/mL
384 mg, Day 7, plasma, healthy volunteers, read-out: AUC0-24 AM
  AUC(0-t): 54.9 µg·h/mL
384 mg, Day 7, plasma, healthy volunteers, read-out: AUC0-24 GM
  AUC(0-t): 42.1 µg·h/mL
384 mg, Day 7, plasma, healthy volunteers, read-out: AUC0-24 Median
  AUC(0-t): 50 µg·h/mL
384 mg, Day 7, plasma, healthy volunteers, read-out: AUC0-24 Min, Max
  AUC(0-t): 11.5 to 125 µg·h/mL
384 mg, Day 7, plasma, healthy volunteers, read-out: Cmax AM
  Cmax: 7.88 µg/mL
384 mg, Day 7, plasma, healthy volunteers, read-out: Cmax GM
  Cmax: 6.65 µg/mL
384 mg, Day 7, plasma, healthy volunteers, read-out: Cmax Median
  Cmax: 6.5 µg/mL
384 mg, Day 7, plasma, healthy volunteers, read-out: Cmax Min, Max
  Cmax: 2.87 to 17.9 µg/mL
384 mg, Day 7, plasma, healthy volunteers, read-out: Tmax Median
  Tmax: 3.5 h
384 mg, Day 7, plasma, healthy volunteers, read-out: Tmax Min, Max
  Tmax: 2.52 to 4.03 h
